Results reported in patent publication US20110123483A1, “HMGB1 FOR CANCER TREATMENT” (DEUTSCHES KREBSFORSCHUNGSZENTRUM, priority 2009, published 2011).

What was measured:
[1] = tested on: NCH421 K glioblastoma stem-cell-like cells; assay: Cell morphology / spheroid cell aggregates; format: cell-based; settings: FIG. 12B
U251 MG cells = assay: ROS measurement by DCF fluorescence and FACS analysis; format: cell-based, human; settings: 40 nM, 24 h (FIG. 3A)
Experimental: For measurement of reactive oxygen species (ROS) and mitochondrial membrane potential (MMP) 1.5×10^6 U251 MG cells were seeded in 6 cm plates, treated with 40 nM rhHMGB1 for 24 h and incubated with the fluorescent DiOC6 (3,3′-dihexyloxacarbocyanine iodide, 40 nmol/ll, Sigma Chemical Co., St. Louis, Mo.) or with the fluorescent H2DCF-DA (dichlorodihydrofluorescein diacetate, 10 μM, Invitrogen) for 1 h at 37° C., respectively. The cells were trypsinized and centrifuged at 2,000 rpm for 5 min at 4° C. The supernatant was discarded and the pellet was washed 2× with sterile Dulbecco's PBS containing 0.1% fetal calf serum on ice and again centrifuged at 2,000 rpm for 5 min at 4° C. The pellet was resuspended in 500 μl sterile Dulbecco's PBS on ice. Oxidation of H2DCF to DCF by ROS and DiOC6 accumulation in mitochondria were measured immediately at FL-1 by flow cytometry using a FACScalibur (Beckton Dickinson, Heidelberg, Germany). Cell cycle was determined by measurement of priopidiumiodide (PI)-uptake of the cells according to standard procedures. Briefly, the cells were harvested and washed twice in sterile Dulbecco's PBS on ice, spun down at 2,000 rpm for 5 min at 4° C. and fixed with 70% ethanol for 30 min at 4° C. Contaminating RNA was eliminated by treatment with 100 μg/ml of RNase A, then 50 μg/ml PI was added and DNA content was measured immediately at FI-2. […]

U251MG glioma cells = assay: Subcellular fractionation after iodine-125 labelled rhHMGB1; immunofluorescence colocalization; format: cell-based, human; settings: 40 nM for 24 h (FIG. 8B)
Experimental: U251 cells were seeded on 10 cm culture dishes. […], 4 h, 16 h and 24 h, the cells were detached carefully by incubation with cell dissociation buffer (30 min) in order to protect possible surface proteinreceptor-complexes, harvested, and subjected to subcellular fractionation using the ApoAlert Fractionation Kit as described below (the plasma membrane fraction was extracted from the cytoplasmatic fraction by a last centrifugation step of 400.000×g for 15 min at 4° C.). Successful fractionation was confirmed by western blot. Successful coupling of the HMGB1-tyrosine residues with I-125 was shown by the high radioactivity in the protein fraction of sephadex G25 gel filtration (early eluates). Fraction 4 was used for the incubation of cells with I-125-HMGB1. For radioactivity measurements cells were solubilized in 0.5M NaOH and mixed with 10 ml LSC cocktail (Ultima Gold, Perkin Elmer, Waltham Mass.). The radioactivity of each subcellular fraction was measured in a liquid scintillation counter (Packard TriCarb 2900, Meriden, Ill.) by using the Compton effect.
Enrichment of mitochondrial fractions was performed using the ApoAlert Cell Fractionation Kit (Clontech, Mountain View, Calif.) as described previously (Gdynia et al., 2008). […]

Substance: rhHMGB1: recombinant human High Mobility Group B1 protein (Sigma Aldrich)
- anti-proliferative effect, spheroid cell aggregates [1]: clearly smaller and fewer spheroid cell aggregates
- generation of radical oxygen species (ROS) (U251 MG cells): strong generation
- mitochondrial localization, co-staining with mitochondrial marker (MitoTracker) (U251MG glioma cells): confirmed
